Results taken from patent US20230111914A1, “SYNTHETIC TRITERPENOIDS WITH NITROGEN-BASED SUBSTITUENTS AT C-17 AND METHODS OF USE THEREOF” (REATA PHARMACEUTICALS, INC., priority 2019, published 2023).
Where “and” joins values, the source holds several entries; their conditions need not be identical. Equal values may be shown once. Read-outs that look alike come from different tables or passages of the source. Marks after values point to notes of the source that are not given here.

Experiments:
[1] = test system: IFNγ-induced NO production in RAW 264.7 cells; assay: Nitric oxide suppression assay (IFNγ-induced NO production, Griess nitrite readout); format: cell-based, mouse; conditions: for IC50: 2 h pretreatment, 20 ng/mL interferon gamma 24 h, average of trials per footnote, read-out: NO IC50
[2] = test system: AREc32 reporter cell line (luciferase reporter under eight copies of the rat GSTA2 ARE sequence); assay: AREc32 luciferase reporter activation; format: cell-based, human; conditions: for EC (2-fold): Homo sapiens, Arec32, concentration that increases the luminescence signal 2-fold above vehicle, 19 h treatment, read-out: AREc32 EC2X (Mean ± SD)
[3] = Mus musculus, RAW264.7, RAW 264.7 cells

Row | SMILES | NO IC50 Rel. to RTA 402 [1] | IC50 [1, 3] | AREc32 EC2X Relative to RTA 402 (Mean ± SD) [2] | EC (2-fold) [2] | AREc32 Relative to CC in Same Experiment (Mean ± SD) ([2]; comparison compound CC4, average of ratios from three replicate experiments) | IC50 ([1]; RAW 264.7 cells)
1 | CC1(C)CC[C@]2(n3cc(CO)nn3)CC[C@]3(C)[C@H](C(=O)C=C4[C@@]5(C)C=C(C#N)C(=O)C(C)(C)[C@@H]5CC[C@]43C)[C@@H]2C1 [Compound T42] | 2.97 ± 0.47^d fold | 12.4 ± 3.92 nM | 1.3 ± 0.34^f fold | 0.0148 ± 0.00277 µM | 0.490 ± 0.057 | –
2 | CNC(=O)N[C@]12CCC(C)(C)C[C@H]1[C@H]1C(=O)C=C3[C@@]4(C)C=C(C#N)C(=O)C(C)(C)[C@@H]4CC[C@@]3(C)[C@]1(C)CC2 [Compound 63172, reference compound] | 7.73 fold | 21.6 nM | – | – | – | –
3 | CC1(C)CC[C@]2(n3ccoc3=O)CC[C@]3(C)[C@H](C(=O)C=C4[C@@]5(C)C=C(C#N)C(=O)C(C)(C)[C@@H]5CC[C@]43C)[C@@H]2C1 [Compound T40] | 1.37 ± 0.18^d fold | 5.56 ± 0.72 nM | 1.8^e fold | 0.0196 µM | – | –
4 | CCC(=O)N[C@]12CCC(C)(C)C[C@H]1[C@H]1C(=O)C=C3[C@@]4(C)C=C(C#N)C(=O)C(C)(C)[C@@H]4CC[C@@]3(C)[C@]1(C)CC2 [Compound 63189, reference compound] | 4.06 fold | 7.2 nM | – | – | – | –
5 | CC1(C)CC[C@]2(CN3CC4(COC4)C3)CC[C@]3(C)[C@H](C(=O)C=C4[C@@]5(C)C=C(C#N)C(=O)C(C)(C)[C@@H]5CC[C@]43C)[C@@H]2C1 [Compound T23] | 2.01 ± 0.53^e fold | 4.16 ± 1.19 nM | 1.9^e fold | 0.0185 µM | – | –
6 | C[C@@H]1C(=O)C(C#N)=C[C@]2(C)C3=CC(=O)[C@@H]4[C@@H]5CC(C)(C)CC[C@]5(CN5CCCC5=O)CC[C@@]4(C)[C@]3(C)CC[C@@H]12 [Compound T66] | 0.39 ± 0.09^e fold | 0.45 ± 0.09 nM | 0.4^e fold | 0.0046 µM | – | –
7 | CC1(C)CC[C@]2(N3CCOC3=O)CC[C@]3(C)[C@H](C(=O)C=C4[C@@]5(C)C=C(C#N)C(=O)C(C)(C)[C@@H]5CC[C@]43C)[C@@H]2C1 [Compound T34] | 1.23 ± 0.23^e fold | 2.23 ± 0.57 nM | 2.2^e fold | 0.0236 µM | – | –
8 | CC1(C)CC[C@]2(NNC(=O)C(F)(F)F)CC[C@]3(C)[C@H](C(=O)C=C4[C@@]5(C)C=C(C#N)C(=O)C(C)(C)[C@@H]5CC[C@]43C)[C@@H]2C1 [Compound T56] | 1.70 ± 0.32^d fold | 7.04 ± 1.91 nM | 1.5^e fold | 0.0155 µM | – | –
9 | CC1(C)CC[C@]2(N3CCNC3=O)CC[C@]3(C)[C@H](C(=O)C=C4[C@@]5(C)C=C(C#N)C(=O)C(C)(C)[C@@H]5CC[C@]43C)[C@@H]2C1 [Compound T30] | 3.68 ± 0.33^d fold | 15 ± 2.92 nM | – | – | – | –
10 | CC1(C)CC[C@]2(n3cnnc3)CC[C@]3(C)[C@H](C(=O)C=C4[C@@]5(C)C=C(C#N)C(=O)C(C)(C)[C@@H]5CC[C@]43C)[C@@H]2C1 [Compound T39] | 42.82 ± 14.24^e fold | 84.5 ± 18.9 nM | 9.8 ± 1.1^a fold | 0.0943 ± 0.00426 µM | – | –
11 | COC(=O)[C@]12CCC(C)(C)C[C@H]1[C@H]1C(=O)C=C3[C@@]4(C)C=C(C#N)C(=O)C(C)(C)[C@@H]4CC[C@@]3(C)[C@]1(C)CC2 [RTA 402, reference compound] | 1.00 ± 0.00 fold | 2.58 ± 1.19 nM | 1.00 fold | 0.0118 ± 0.0029 µM | – | –
12 | CNC[C@]12CCC(C)(C)C[C@H]1[C@H]1C(=O)C=C3[C@@]4(C)C=C(C#N)C(=O)C(C)(C)[C@@H]4CC[C@@]3(C)[C@]1(C)CC2 [Compound T6] | 1.60 ± 0.23^e fold | 3.35 ± 1.62 nM | 1.2 ± 0.35^a fold | 0.0169 ± 3e-05 µM | – | –
13 | CC1(C)CC[C@]2(n3cc[nH]c3=O)CC[C@]3(C)[C@H](C(=O)C=C4[C@@]5(C)C=C(C#N)C(=O)C(C)(C)[C@@H]5CC[C@]43C)[C@@H]2C1 [Compound T45] | 4.02 ± 0.61^d fold | 16.4 ± 2.94 nM | – | – | – | –
14 | CC1(C)CC[C@]2(CNC(=O)OC(C)(C)C)CC[C@]3(C)[C@H](C(=O)C=C4[C@@]5(C)C=C(C#N)C(=O)C(C)(C)[C@@H]5CC[C@]43C)[C@@H]2C1 [CC1, reference compound] | 2.06 ± 0.56^e fold | 5.04 ± 2.62 nM | 2.1 ± 0.00^a fold | 0.0211 ± 0.00475 µM | – | –
15 | CC1(C)CC[C@]2(NC(=O)C3CC3)CC[C@]3(C)[C@H](C(=O)C=C4[C@@]5(C)C=C(C#N)C(=O)C(C)(C)[C@@H]5CC[C@]43C)[C@@H]2C1 [Compound T68] | 6.51 ± 1.38^i fold | – | – | – | – | 11.4 ± 5.17 nM
16 | CC1(C)CC[C@]2(N(NC(=O)OC(C)(C)C)C(=O)OC(C)(C)C)CC[C@]3(C)[C@H](C(=O)C=C4[C@@]5(C)C=C(C#N)C(=O)C(C)(C)[C@@H]5CC[C@]43C)[C@@H]2C1 [Compound T55] | 17.42 ± 0.43^e fold | 68.9 ± 10 nM | – | – | – | –
17 | CC1(C)CC[C@]2(n3ccc(C(F)(F)F)n3)CC[C@]3(C)[C@H](C(=O)C=C4[C@@]5(C)C=C(C#N)C(=O)C(C)(C)[C@@H]5CC[C@]43C)[C@@H]2C1 [Compound T60] | 11.32 ± 1.49^e fold | 45.1 ± 10.6 nM | – | – | – | –
18 | C=CC(=O)N[C@]12CCC(C)(C)C[C@H]1[C@H]1C(=O)C=C3[C@@]4(C)C=C(C#N)C(=O)C(C)(C)[C@@H]4CC[C@@]3(C)[C@]1(C)CC2 [Compound 63183, reference compound] | 1.35 fold | 4 nM | – | – | – | 2.39 nM
19 | CC1(C)CC[C@]2(CN3CC(O)C3)CC[C@]3(C)C(O)(C(=O)C=C4[C@@]5(C)C=C(C#N)C(=O)C(C)(C)[C@@H]5CC[C@]43C)[C@@H]2C1 (stereo partly drawn) [Compound T64] | 1.64 ± 0.16^e fold | 3.82 ± 1.76 nM | – | – | – | –
20 | CC1(C)CC[C@]2(NC(=O)C3CC3)CC[C@]3(C)[C@H](C(=O)C=C4[C@@]5(C)C=C(C#N)C(=O)C(C)(C)[C@@H]5CC[C@]43C)[C@@H]2C1 [Compound 63236, reference compound] | 57.25 fold | – | – | – | – | 143 nM
21 | CN1CC(=O)N([C@]23CCC(C)(C)C[C@H]2[C@H]2C(=O)C=C4[C@@]5(C)C=C(C#N)C(=O)C(C)(C)[C@@H]5CC[C@@]4(C)[C@]2(C)CC3)CC1=O [Compound T54] | 16.18 ± 3.50^e fold | 64.6 ± 19.7 nM | – | – | – | –
22 | CC1(C)CC[C@]2(CN3C(=O)CCN3C(=O)OC(C)(C)C)CC[C@]3(C)[C@H](C(=O)C=C4[C@@]5(C)C=C(C#N)C(=O)C(C)(C)[C@@H]5CC[C@]43C)[C@@H]2C1 [Compound T50] | 1.17 ± 0.18^d fold | 4.82 ± 1.3 nM | – | – | – | –
23 | CN1CCN([C@]23CCC(C)(C)C[C@H]2[C@H]2C(=O)C=C4[C@@]5(C)C=C(C#N)C(=O)C(C)(C)[C@@H]5CC[C@@]4(C)[C@]2(C)CC3)CC1=O [Compound T61] | 3.18 ± 0.67^d fold | 13.2 ± 3.78 nM | – | – | – | –
24 | CC(=O)N[C@]12CCC(C)(C)C[C@H]1[C@H]1C(=O)C=C3[C@@]4(C)C=C(C#N)C(=O)C(C)(C)[C@@H]4CC[C@@]3(C)[C@]1(C)CC2 [Compound 63170, reference compound] | 4.95 fold | 8.45 nM | – | – | – | –
25 | CC1(C)CC[C@]2(n3nccc3C(F)(F)F)CC[C@]3(C)[C@H](C(=O)C=C4[C@@]5(C)C=C(C#N)C(=O)C(C)(C)[C@@H]5CC[C@]43C)[C@@H]2C1 [Compound T59] | 12.08 ± 2.93^d fold | 49.5 ± 13.8 nM | – | – | – | –
26 | CC1(C)CC[C@]2(c3nn[nH]n3)CC[C@]3(C)[C@H](C(=O)C=C4[C@@]5(C)C=C(C#N)C(=O)C(C)(C)[C@@H]5CC[C@]43C)[C@@H]2C1 [Compound 63229, reference compound] | >75.85 fold | > 200 nM | – | – | – | –
27 | C[C@@H]1C(=O)C(C#N)=C[C@]2(C)C3=CC(=O)[C@@H]4[C@@H]5CC(C)(C)CC[C@]5(NC(=O)C5CC5)CC[C@@]4(C)[C@]3(C)CC[C@@H]12 [Compound 63866, reference compound] | 1.16 fold | 1.43 nM | – | – | – | –
28 | CC1(C)CC[C@]2(N)CC[C@]3(C)[C@H](C(=O)C=C4[C@@]5(C)C=C(C#N)C(=O)C(C)(C)[C@@H]5CC[C@]43C)[C@@H]2C1 [CC4, reference compound] | 2.41 fold and 2.41 ± 0.49^b fold | 3.75 nM | – | – | – | –
